Test results from patent US9416126B2, “Compounds inhibiting leucine-rich repeat kinase enzyme activity” (Merck Sharp & Dohme Corp., priority 2013, dated 2016).

These compounds were tested against LRRK2(G2019S mutation, GST-LRRK2(amino acids 970-2527)) (Homo sapiens (Human), UniProt Q5S007, G2019S) (assay: LRRK2 Km ATP LanthaScreen Assay). Settings: Km ATP (184 μM ATP solution), G2019S LRRK2, mean IC50.
Sequence of LRRK2(G2019S mutation, GST-LRRK2(amino acids 970-2527)) (Q5S007 970-2527 G2019S): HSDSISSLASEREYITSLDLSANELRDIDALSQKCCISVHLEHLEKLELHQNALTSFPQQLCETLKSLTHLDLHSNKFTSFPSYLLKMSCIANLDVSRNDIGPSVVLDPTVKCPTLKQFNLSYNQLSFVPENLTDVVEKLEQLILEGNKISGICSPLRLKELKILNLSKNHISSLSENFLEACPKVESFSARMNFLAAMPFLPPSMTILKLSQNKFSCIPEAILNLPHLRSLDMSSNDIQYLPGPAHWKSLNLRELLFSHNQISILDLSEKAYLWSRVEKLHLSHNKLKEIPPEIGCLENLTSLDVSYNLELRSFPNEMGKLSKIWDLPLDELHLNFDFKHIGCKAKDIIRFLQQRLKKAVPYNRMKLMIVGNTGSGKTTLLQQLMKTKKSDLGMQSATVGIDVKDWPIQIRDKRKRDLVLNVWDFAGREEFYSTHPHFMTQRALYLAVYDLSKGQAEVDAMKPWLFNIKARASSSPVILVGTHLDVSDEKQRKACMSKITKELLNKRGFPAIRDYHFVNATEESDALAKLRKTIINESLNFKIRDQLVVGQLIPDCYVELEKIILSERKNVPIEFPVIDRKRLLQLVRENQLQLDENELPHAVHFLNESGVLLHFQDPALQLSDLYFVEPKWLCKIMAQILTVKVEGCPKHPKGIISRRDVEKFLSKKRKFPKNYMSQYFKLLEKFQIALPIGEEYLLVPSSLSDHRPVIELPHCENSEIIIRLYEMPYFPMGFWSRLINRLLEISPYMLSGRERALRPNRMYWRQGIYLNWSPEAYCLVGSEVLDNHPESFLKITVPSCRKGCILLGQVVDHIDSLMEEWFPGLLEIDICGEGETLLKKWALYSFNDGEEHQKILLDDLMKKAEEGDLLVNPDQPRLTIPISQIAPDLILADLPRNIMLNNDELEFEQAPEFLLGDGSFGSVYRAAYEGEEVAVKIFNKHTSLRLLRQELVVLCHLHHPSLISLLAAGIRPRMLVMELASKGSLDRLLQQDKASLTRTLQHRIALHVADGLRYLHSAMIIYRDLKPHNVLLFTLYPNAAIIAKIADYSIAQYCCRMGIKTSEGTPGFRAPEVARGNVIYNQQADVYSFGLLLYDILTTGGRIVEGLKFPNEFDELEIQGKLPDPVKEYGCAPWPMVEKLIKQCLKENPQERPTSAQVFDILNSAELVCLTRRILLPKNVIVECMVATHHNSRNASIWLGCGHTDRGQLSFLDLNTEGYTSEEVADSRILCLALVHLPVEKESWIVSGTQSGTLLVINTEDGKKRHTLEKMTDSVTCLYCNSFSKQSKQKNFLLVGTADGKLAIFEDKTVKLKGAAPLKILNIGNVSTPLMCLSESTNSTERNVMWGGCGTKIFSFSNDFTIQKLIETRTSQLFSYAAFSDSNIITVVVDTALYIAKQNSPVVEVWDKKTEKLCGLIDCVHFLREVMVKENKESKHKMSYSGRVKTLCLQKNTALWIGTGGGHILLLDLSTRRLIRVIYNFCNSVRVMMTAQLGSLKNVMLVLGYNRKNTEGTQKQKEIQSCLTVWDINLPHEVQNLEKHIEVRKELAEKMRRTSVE
Format: biochemical
Procedure: Unless otherwise noted, all LRRK2 IC50 data presented in tables refers to the LRRK2 Km ATP LanthaScreen™ Assay that is described in the Biological Assay section.
The data presented for the 5 mM and Km ATP LanthaScreen™ Assay represents mean IC50 values based on several test results and may have reasonable. deviations depending on the specific conditions and reagents used. Reagents for the LRRK2 5 mM and Km ATP LanthaScreen™ Assay were purchased from Life Technologies Corporation.
LRRK2 Km ATP LanthaScreen™ Assay
a) 400 nl of a 1:2.15 serial dilution of test compound(98 μM top assay concentration) is spotted via Labcyte Echo to certain wells in a 384 well black, untreated plate. Control wells contain 400 nl of either DMSO or 400 nl of a known inhibitor in DMSO.
b) 10 μl of a 2.5 nM LRRK2(G2019S mutation, GST-LRRK2(amino acids 970-2527)) enzyme solution in 1× assay buffer(50 mM Tris pH 8.5, 10 mM MgCl2, 0.01% Brij-35, 1 mM EGTA, 2 mM DTT, 0.05 mM NaVO4) is added to all wells.
c) A 30 minute room temperature incubation is followed by addition of 10 μl of 800 nM fluorescein labeled LRRKtide peptide substrate and 184 μM ATP solution in 1× assay buffer to all wells.
d) After a 60 minute room temperature incubation, 20 μl of TR-FRET Dilution Buffer(Invitrogen PV3756B) containing 4 nM Tb-labeled anti-phospho LRRKtide antibody and 20 mM EDTA is added to all wells.
e) Plates are incubated at room temperature for 1 hour and read on an Envision™ multi-mode plate reader with LanthaScreen™ settings. Results are analysed using Assay Data Analyzer.
`CC(C)Oc1ccc2[nH]nc(-c3cc(N4CCc5oc(C6CC6)nc5C4)ncn3)c2c1` [Example J14] was tested, and the IC50 was 30.1 nM.
Work on `CC(C)Oc1ccc2[nH]nc(-c3cc(N4CCC(F)(F)CC4)ncn3)c2c1` [Example J15] yielded an IC50 of 20.2 nM.
Compound `CC(C)Oc1ccc2[nH]nc(-c3cc(N4CC(S(C)(=O)=O)C4)ncn3)c2c1` [Example J16] has an IC50 of 13.3 nM.
Work on `CC(C)Oc1ccc2[nH]nc(-c3cc(N4CCN(C)CC4)ncn3)c2c1` [Example J17] yielded an IC50 of 5.4 nM.
With `CC(C)Oc1ccc2[nH]nc(-c3cc(N4CC(F)(F)C4)ncn3)c2c1` [Example J18] the IC50 was 24.3 nM.
For `CCc1nnc2n1CCN(c1cc(-c3n[nH]c4ccc(OC(C)C)cc34)ncn1)C2` [Example J19], the IC50 was 8.6 nM.
`CC(C)Oc1ccc2[nH]nc(-c3cc(N4CCc5nc(C6CC6)oc5C4)ncn3)c2c1` [Example J20] was tested, and the IC50 was 43 nM.
`CC(C)Oc1ccc2[nH]nc(-c3cc(N4CCN(c5nnc(C6CC6)o5)CC4)ncn3)c2c1` [Example J21] was tested, and the IC50 was 14 nM.
`Cc1noc(C2CN(c3cc(-c4n[nH]c5ccc(OC(C)C)cc45)ncn3)C2)n1` [Example J22] showed an IC50 of 9.3 nM.
In the case of `CC(C)Oc1ccc2[nH]nc(-c3cc(N4CC(n5cnnc5)C4)ncn3)c2c1` [Example J23], the IC50 is reported as 20.1 nM.
With `CC(C)Oc1ccc2[nH]nc(-c3cc(N4CCN(c5ccncn5)CC4)ncn3)c2c1` [Example J24] the IC50 was 15.8 nM.
Compound `CC(C)Oc1ccc2[nH]nc(-c3cc(N4CC[C@@H](F)C4)ncn3)c2c1` [Example J25] has an IC50 of 8.7 nM.
With `CC(C)Oc1ccc2[nH]nc(-c3cc(N4CC[C@H](F)C4)ncn3)c2c1` [Example J26] the IC50 was 9.5 nM.
Compound `CC(C)NC(=O)CN1CCN(c2cc(-c3n[nH]c4ccc(OC(C)C)cc34)ncn2)CC1` [Example K1] has an IC50 of 5.1 nM.
With `CC(C)Oc1ccc2[nH]nc(-c3cc(N4CCN(C(=O)c5ccco5)CC4)ncn3)c2c1` [Example K2] the IC50 was 8.7 nM.
`CCN1CCN(c2cc(-c3n[nH]c4ccc(OC(C)C)cc34)ncn2)CC1` [Example K3] showed an IC50 of 6 nM.
`COC1CCCN(c2cc(-c3n[nH]c4ccc(OC(C)C)cc34)ncn2)C1` (stereo not shown) [Example K4] showed an IC50 of 12.7 nM.
With `CC(=O)N1CCN(c2cc(-c3n[nH]c4ccc(OC(C)C)cc34)ncn2)CC1` [Example K5] the IC50 was 11.2 nM.
Compound `CC(C)Oc1ccc2[nH]nc(-c3cc(N4CCN(C(=O)C5CCCO5)CC4)ncn3)c2c1` (stereo not shown) [Example K6] has an IC50 of 58.1 nM.
`CC(C)Oc1ccc2[nH]nc(-c3cc(N4CCN(c5ncccn5)CC4)ncn3)c2c1` [Example K7] was tested, and the IC50 was 11.8 nM.
`CC(C)Oc1ccc2[nH]nc(-c3cc(N4CCC(C#N)CC4)ncn3)c2c1` [Example K8] showed an IC50 of 7.2 nM.
`COC(=O)N1CCN(c2cc(-c3n[nH]c4ccc(OC(C)C)cc34)ncn2)CC1` [Example K9] gave an IC50 of 10.2 nM.
`CC(C)Oc1ccc2[nH]nc(-c3cc(N4CCC(n5ccnc5)C4)ncn3)c2c1` (stereo not shown) [Example K11] was tested, and the IC50 was 11.3 nM.
Compound `CC(C)Oc1ccc2[nH]nc(-c3cc(N4CCC(O)(C(F)(F)F)CC4)ncn3)c2c1` [Example K12] has an IC50 of 10.5 nM.
With `CC(C)Oc1ccc2[nH]nc(-c3cc(N4CCCC(C(C)(C)O)C4)ncn3)c2c1` (stereo not shown) [Example K13] the IC50 was 6.9 nM.
`CC(C)Oc1ccc2[nH]nc(-c3cc(N4CCC(n5cccn5)CC4)ncn3)c2c1` [Example K14] was tested, and the IC50 was 15.3 nM.
`CC(C)Oc1ccc2[nH]nc(-c3cc(N4CCC(CF)C4)ncn3)c2c1` (stereo not shown) [Example K15] gave an IC50 of 6.9 nM.
`CC(C)Oc1ccc2[nH]nc(-c3cc(N4CCN(Cc5ccncc5)CC4)ncn3)c2c1` [Example K16] was tested, and the IC50 was 8.2 nM.
`CC(C)Oc1ccc2[nH]nc(-c3cc(N4CCN(c5cnn(C)c5)CC4)ncn3)c2c1` [Example K17] gave an IC50 of 5.4 nM.
Compound `CC(C)Oc1ccc2[nH]nc(-c3cc(N4CCC(C(C)(C)O)CC4)ncn3)c2c1` [Example K18] has an IC50 of 5.4 nM.
Compound `CC(C)Oc1ccc2[nH]nc(-c3cc(N4CCn5nc(C6CC6)nc5C4)ncn3)c2c1` [Example K19] has an IC50 of 18.2 nM.
For `CC(C)Oc1ccc2[nH]nc(-c3cc(N4CCC(F)(CO)CC4)ncn3)c2c1` [Example K20], the IC50 was 6.3 nM.
In the case of `CC(C)Oc1ccc2[nH]nc(-c3cc(N4CCN(c5nncs5)CC4)ncn3)c2c1` [Example K21], the IC50 is reported as 17 nM.
For `Cn1cc(-c2cc3c(-c4cc(N5CCn6ncnc6C5)ncn4)n[nH]c3cc2F)cn1` [Example L1], the IC50 was 63.9 nM.
`Cn1cc(-c2cc3c(-c4cc(N5CC[C@H](CF)C5)ncn4)n[nH]c3cc2F)cn1` [Example L2] was tested, and the IC50 was 13.6 nM.
In the case of `Cn1cc(-c2cc3c(-c4cc(N5CCCC(F)(F)C5)ncn4)n[nH]c3cc2F)cn1` [Example L3], the IC50 is reported as 23.4 nM.
For `Cn1cc(-c2cc3c(-c4cc(N5CC[C@@H](CO)C5)ncn4)n[nH]c3cc2F)cn1` [Example L4], the IC50 was 36.8 nM.
For `Cn1cc(-c2cc3c(-c4cc(N5CC[C@H](CO)C5)ncn4)n[nH]c3cc2F)cn1` [Example L5], the IC50 was 37 nM.
`Cn1cc(-c2cc3c(-c4cc(N5CCC(F)(F)C5)ncn4)n[nH]c3cc2F)cn1` [Example L6] gave an IC50 of 70.9 nM.
For `Cn1cc(-c2cc3c(-c4cc(N5CCCC(C)(O)C5)ncn4)n[nH]c3cc2F)cn1` (stereo not shown) [Example L7], the IC50 was 67.5 nM.
In the case of `Cn1cc(-c2cc3c(-c4cc(N5CC[S+]([O-])CC5)ncn4)n[nH]c3cc2F)cn1` [Example L8], the IC50 is reported as 131 nM.
For `CN1CCN(c2cc(-c3n[nH]c4cc(F)c(-c5cnn(C)c5)cc34)ncn2)CC1=O` [Example L9], the IC50 was 37.7 nM.
Work on `Cn1cc(-c2cc3c(-c4cc(N5CCc6oncc6C5)ncn4)n[nH]c3cc2F)cn1` [Example L10] yielded an IC50 of 453 nM.
With `Cn1cc(-c2cc3c(-c4cc(N5CCN(C6CC6)CC5)ncn4)n[nH]c3cc2F)cn1` [Example L11] the IC50 was 17.7 nM.
Compound `C[C@H]1CN(c2cc(-c3n[nH]c4cc(F)c(-c5cnn(C)c5)cc34)ncn2)CCO1` [Example L12] has an IC50 of 26.5 nM.
For `C[C@@H]1CN(c2cc(-c3n[nH]c4cc(F)c(-c5cnn(C)c5)cc34)ncn2)CCO1` [Example L13], the IC50 was 20.5 nM.
`Cn1cc(-c2cc3c(-c4cc(N5C[C@@H](F)[C@H](F)C5)ncn4)n[nH]c3cc2F)cn1` [Example L14] was tested, and the IC50 was 29.9 nM.
In the case of `Cn1cc(-c2cc3c(-c4cc(N5CCCC6(CCO6)C5)ncn4)n[nH]c3cc2F)cn1` (stereo not shown) [Example L15], the IC50 is reported as 398 nM.
`Cn1cc(-c2cc3c(-c4cc(N5CCC(n6cccn6)C5)ncn4)n[nH]c3cc2F)cn1` (stereo not shown) [Example L16] showed an IC50 of 73.5 nM.
In the case of `Cc1nc2c(o1)CCN(c1cc(-c3n[nH]c4cc(F)c(-c5cnn(C)c5)cc34)ncn1)C2` [Example L17], the IC50 is reported as 53.4 nM.
`Cn1cc(-c2cc3c(-c4cc(N5CCN6C(=O)OCC6C5)ncn4)n[nH]c3cc2F)cn1` (stereo not shown) [Example L18] gave an IC50 of 64.2 nM.
With `Cn1cc(-c2cc3c(-c4cc(N5CCC(F)(C#N)CC5)ncn4)n[nH]c3cc2F)cn1` [Example L19] the IC50 was 39.4 nM.
For `CO[C@@H]1CN(c2cc(-c3n[nH]c4cc(F)c(-c5cnn(C)c5)cc34)ncn2)C[C@H]1O` [Example L20], the IC50 was 36.2 nM.
`CN(C)[C@@H]1CN(c2cc(-c3n[nH]c4cc(F)c(-c5cnn(C)c5)cc34)ncn2)C[C@H]1O` [Example L21] gave an IC50 of 67.1 nM.
Work on `Cn1cc(-c2cc3c(-c4cc(N5CCS(=O)(=O)CC5)ncn4)n[nH]c3cc2F)cn1` [Example L22] yielded an IC50 of 146 nM.
Compound `Cn1cc(-c2cc3c(-c4cc(N5CCC(F)(CO)CC5)ncn4)n[nH]c3cc2F)cn1` [Example L23] has an IC50 of 15.3 nM.
`CN(C)[C@@H]1CCN(c2cc(-c3n[nH]c4cc(F)c(-c5cnn(C)c5)cc34)ncn2)C1` [Example L24] was tested, and the IC50 was 58 nM.
For `Cn1cc(-c2cc3c(-c4cc(N5CCN(CCCO)CC5)ncn4)n[nH]c3cc2F)cn1` [Example L25], the IC50 was 12.6 nM.
`Cn1cc(-c2cc3c(-c4cc(N5CCc6nccnc6C5)ncn4)n[nH]c3cc2F)cn1` [Example L26] showed an IC50 of 11.1 nM.
`CO[C@@H]1CCN(c2cc(-c3n[nH]c4ccc(-c5cnn(C)c5)cc34)ncn2)C1` [Example M1] showed an IC50 of 4 nM.
Work on `Cn1cc(-c2ccc3[nH]nc(-c4cc(N5CCCC(F)(F)C5)ncn4)c3c2)cn1` [Example M2] yielded an IC50 of 2.2 nM.
For `Cn1cc(-c2ccc3[nH]nc(-c4cc(N5CCn6ncnc6C5)ncn4)c3c2)cn1` [Example M3], the IC50 was 8.5 nM.
`Cn1cc(-c2ccc3[nH]nc(-c4cc(N5CC[C@@H](CF)C5)ncn4)c3c2)cn1` [Example M4] was tested, and the IC50 was 2.3 nM.
For `Cn1cc(-c2ccc3[nH]nc(-c4cc(N5CC[C@H](CO)C5)ncn4)c3c2)cn1` [Example M5], the IC50 was 2.5 nM.
`CC(O)C1CCN(c2cc(-c3n[nH]c4ccc(-c5cnn(C)c5)cc34)ncn2)C1` (stereo not shown) [Example M6] gave an IC50 of 2.3 nM.
`Cn1cc(-c2ccc3[nH]nc(-c4cc(N5CC[C@@H](CO)C5)ncn4)c3c2)cn1` [Example M7] showed an IC50 of 2.9 nM.
Work on `Cn1cc(-c2ccc3[nH]nc(-c4cc(N5CCCC(C)(O)C5)ncn4)c3c2)cn1` (stereo not shown) [Example M8] yielded an IC50 of 7.9 nM.
In the case of `C[C@@H]1CN(c2cc(-c3n[nH]c4ccc(-c5cnn(C)c5)cc34)ncn2)CCO1` [Example M9], the IC50 is reported as 1.9 nM.
Compound `CO[C@H]1CCN(c2cc(-c3n[nH]c4ccc(-c5cnn(C)c5)cc34)ncn2)C1` [Example M10] has an IC50 of 2.6 nM.
Work on `Cn1cc(-c2ccc3[nH]nc(-c4cc(N5CC[S+]([O-])CC5)ncn4)c3c2)cn1` [Example M11] yielded an IC50 of 26.8 nM.
